Consider 52 compounds from patent publication US20140148484A1, “PYRAZOLE COMPOUNDS FOR TREATING HAIRLOSS” (Boehringer Ingelheim International GmbH, priority 2012, published 2014).

The target in this test is T1, human CRTH2 receptor (Homo sapiens, UniProt Q9Y5Y4).
T1 construct: host or cells: CHO-K1 (CHO-K1-hCRTH2 cells); membranes prepared in house from the purchased cell line
T1 sequence (Q9Y5Y4 1-395): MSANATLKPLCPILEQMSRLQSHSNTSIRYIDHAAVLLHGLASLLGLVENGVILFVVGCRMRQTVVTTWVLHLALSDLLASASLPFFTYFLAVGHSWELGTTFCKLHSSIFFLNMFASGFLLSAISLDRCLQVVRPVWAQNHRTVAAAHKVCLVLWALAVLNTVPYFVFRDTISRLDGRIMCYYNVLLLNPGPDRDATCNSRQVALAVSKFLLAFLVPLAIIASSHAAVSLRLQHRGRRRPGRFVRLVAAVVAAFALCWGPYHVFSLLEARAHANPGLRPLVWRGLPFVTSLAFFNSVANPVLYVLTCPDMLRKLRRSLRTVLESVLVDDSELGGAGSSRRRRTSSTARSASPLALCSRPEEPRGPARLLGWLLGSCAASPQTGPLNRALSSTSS
Kind of test: Human CRTH2 receptor membrane radioligand binding assay (SPA, [3H]-PGD2). Conditions: displacement of [3H]-PGD2 (1 nM) from CHO-K1-hCRTH2 cell membranes, 3 h room temperature. How it is done:
Preparation of Human CRTH2 Receptor Membranes and Radioligand Binding Assay
The binding of CRTH2 antagonists is determined using membranes prepared from Chinese hamster ovary cells (CHO-K1 cells) transfected with the human CRTH2 receptor (CHO-K1-hCRTH2 cells, Perkin Elmer, Cat No ES-561-C). To produce cell membranes the CHO-K1-hCRTH2 cells are cultured in suspension in CHO SFMII medium supplemented with 400 μg/ml G418. The cells are harvested by centrifugation at 300 g for 10 min at room temperature. The cell pellet is resuspended in Phosphate Buffer Saline (PBS) including a protease inhibitor mix (Complete, Roche) and adjusted to a concentration of 10E7 cells/ml. The CHO-K1-hCRTH2 cells are disrupted by nitrogen […] to obtain the membrane preparation. Cell debris is removed by centrifugation (500 g at 4° C., 30 min) and the supernatant is transferred into fresh tubes followed by a second centrifugation at 40000 g for 1 h at 4° C. to sediment the membranes. The membranes are suspended in SPA incubation buffer (50 mM Tris HCl, 10 mM MgCl2, 150 mM NaCl, 1 mM EDTA, pH 7.4) without bovine serum albumin, homogenized by passing through a single use needle (Terumo, 23G×1″), and stored in aliquots at −80° C.
The CRTH2 receptor binding assay is performed in a scintillation proximity assay (SPA) format with the radioligand [^3H]-PGD2 (Perkin Elmer, NET616000MC). CHO-K1-hCRTH2 cell membranes are again homogenized by passing through a single use needle (Terumo, 23G×1″) and diluted in SPA incubation buffer in suitable concentrations (0.5-10 μg protein/well). The SPA assay is set up in 96 well microtiter plates (Perkin Elmer, CatNo. 6005040) in SPA incubation buffer with a final volume of 200 μl per well and final concentration of 50 mM Tris-HCl, 10 mM MgCl2, 150 mM NaCl, 1 mM EDTA pH 7.4, 0.1% bovine serum albumin). The SPA assay mixture contains 60 μl of the membrane suspension, 80 μl of Wheat Germ Agglutinin coated PVT beads (GE Healthcare, RPNQ-0001, 0.3 mg/well), 40 μl of [3H]-PGD2 diluted in SPA buffer to a final concentration of 1 nM (50 000 dpm) and 20 μl of the test compound (dissolved in dimethylsulfoxid). The SPA assay mixture is incubated for 3 h at room temperature. Bound radioactivity is determined with a scintillation counter (Micro Beta Trilux, Wallac).
The binding of [^3H]-PGD2 to CHO-K1-hCRTH2 cell membranes is determined in the absence (total binding, Bo) and presence (non-specific binding, NSB) of unlabelled PGD2 (1 μM, Cayman Chemical, Cat No 12010) or a reference CRTH2 antagonist (10 μM CAY10471, Cayman Chemical, Cat No 10006735).
Determination of the affinity of a test compound is calculated by subtraction of the non-specific binding (NSB) from the total binding (Bo) or the binding in the presence of the test compound (B) at a given compound concentration. […] The Bo−NSB value is set to 0% inhibition.
In general terms: Loss of bound radioactivity is the signal in a displacement assay; it reports binding, not function.

One may read the Ki as the dissociation constant of the complex between target and ligand, obtained from inhibition or displacement. Low values mean a stronger hold on the target, high ones a looser hold on the target.

Regarding `Cc1nn(Cc2ccc(NC(=O)c3ccc(Cl)c(Cl)c3)cc2Cl)c(C)c1CC(=O)O` [Example 7.15], the inhibition constant Ki came out at 0.6 nM.

The compound `Cc1nn(Cc2ccc(NC(=O)/C=C/c3ccc(Cl)cc3)cc2)c(C)c1CC(=O)O` [Example 1.14] registered a Ki of 1.1 nM. `CCc1nn(Cc2ccc(NC(=O)c3cccc4c3CCCC4)cc2)c(CC)c1CC(=O)O` [Example 2.21] returned a Ki of 0.5 nM. Next, `Cc1ccc(NC(=O)c2ccc(Cn3nc(C)c(CC(=O)O)c3C)cc2)cc1Cl` [Example 9.7]: 7.5 nM. As for `CCc1nn(C(C)c2ccc(NC(=O)c3ccc(C(F)(F)F)cc3)cc2)c(CC)c1CC(=O)O` (stereo not shown) [Example 17.1], the Ki was 0.1 nM.

For the compound `CCc1nn(Cc2ccc(C(=O)Nc3ccc(Cl)c(C(F)(F)F)c3)cc2F)c(CC)c1CC(=O)O` [Example 9.27], the Ki amounted to 0.5 nM. Compound `Cc1nn(Cc2ccc(NC(=O)c3ccc4ccccc4c3C)cc2)c(C)c1CC(=O)O` [Example 1.26] came in with a Ki of 36 nM.

`Cc1c(CC(=O)O)cnn1Cc1ccc(NC(=O)c2ccc3ccccc3c2)cc1` [Example 2.58] gave an inhibition constant (Ki) of 24.6 nM. The result for `CCc1nn(Cc2ccc(NC(=O)c3ccc4ccccc4c3Br)cc2)c(CC)c1CC(=O)O` [Example 2.26] reads 3.6 nM; that for `Cc1nn(Cc2ccc(NC(=O)/C=C/c3ccccc3)cc2F)c(C)c1CC(=O)O` [Example 7.21], 1.9 nM.

With `CCc1nn(Cc2ccc(NC(=O)[C@H]3CC[C@@H](C(F)(F)F)CC3)cc2)c(CC)c1CC(=O)O` [Example 2.16], the affinity, expressed as Ki, was 23.9 nM. This Ki is about 13-fold higher than that of the compound before. The result for `Cc1nn(Cc2ccc(NC(=O)OC(C)(C)C)cc2)c(C)c1CC(=O)O` [Example 3.8] reads 28.6 nM; that for `Cc1c(CC(=O)O)c(C2CCCCC2)nn1Cc1ccc(NC(=O)c2ccc(C(F)(F)F)cc2)cc1` [Example 2.7], 12.9 nM. The result for `Cc1cc(Cl)ccc1COc1ccc(Cn2nc(C)c(CC(=O)O)c2C)cc1` [Example 13.3] reads 619 nM; that for `Cc1nn(Cc2ccc(NC(=O)c3ccc(Cl)c(Cl)c3)cc2)c(C)c1CCC(=O)O` [Example 8.6], 126 nM. Next, `CCc1c(CC(=O)O)c(C)nn1Cc1ccc(NC(=O)c2ccc(C(F)(F)F)cc2)cc1` [Example 2.52]: 0.5 nM; `Cc1c(CC(=O)O)c(-c2ccccc2)nn1Cc1ccc(NC(=O)c2ccc3ccccc3c2)cc1` [Example 2.12]: 2.3 nM; `O=C(O)Cc1c(-c2ccccc2)nn(Cc2ccc(NC(=O)c3ccc4ccccc4c3)cc2)c1-c1ccccc1` [Example 2.44]: 10.2 nM. `CCc1nn(Cc2ccc(NC(=O)c3cc(C)ccc3Br)cc2)c(CC)c1CC(=O)O` [Example 2.19] showed an inhibition constant (Ki) of 5.8 nM. This Ki is about 1.8-fold lower than that of the compound before. In turn, `Cc1nn(Cc2ccc(C[S+]([O-])c3ccc(C(F)(F)F)cc3)cc2)c(C)c1CC(=O)O` (stereo not shown) [Example 16.2] yielded a Ki of 324 nM. Next, `CCc1nn(Cc2ccc(NC(=O)c3ccc(Cl)c(Cl)c3)cc2)c(CC)c1CC(=O)O` [Example 2.6]: 0.25 nM; `Cc1nn(Cc2ccc(NC(=O)c3ccc4ccccc4c3)cc2)c(-c2ccccc2)c1CC(=O)O` [Example 2.8]: 1.3 nM.

With `Cc1cc(Cl)ccc1C(=O)Nc1ccc(Cn2nc(C)c(CC(=O)O)c2C)c(Cl)c1` [Example 7.7], affinity was put at a Ki of 3.4 nM. Next, `Cc1nn(Cc2ccc(NC(=O)c3ccc(Cl)c(Cl)c3)cn2)c(C)c1CC(=O)O` [Example 18.1]: 1.6 nM. The result for `Cc1nn(Cc2ccc(NC(=O)c3ccc(C(C)(C)C)cc3)cc2)c(C)c1CCC(=O)O` [Example 8.4] reads 26.1 nM; that for `Cc1cc(C(=O)Nc2ccc(Cn3nc(C)c(CC(=O)O)c3C)cc2)c(C)cc1Br` [Example 1.17], 2.5 nM; that for `Cc1cc(C(F)(F)F)ccc1C(=O)Nc1ccc(Cn2nc(C)c(CC(=O)O)c2C)cc1` [Example 1.11], 2.7 nM.

In the case of `Cc1ccc(C(=O)Nc2ccc(Cn3nc(C)c(CC(=O)O)c3C)cc2)c(C(F)(F)F)c1` [Example 1.21], affinity was put at a Ki of 80.2 nM.

`Cc1nn(Cc2ccc(C(=O)Nc3ccc(Cl)c(F)c3)cc2)c(C)c1CC(=O)O` [Example 9.2]: the inhibition constant Ki came to 24.5 nM. The result for `Cc1ccc(C(=O)Nc2ccc(Cn3nc(C)c(CC(=O)O)c3C)cc2)c(C)c1` [Example 1.12] reads 12.9 nM; that for `Cc1cc(C(F)(F)F)ccc1C(=O)Nc1ccc(Cn2nc(C)c(CC(=O)O)c2C)c(Cl)c1` [Example 7.14], 1.6 nM. Next, `Cc1nn(Cc2ccc(NS(=O)(=O)c3ccc(Cl)c(Cl)c3)cc2)c(C)c1CC(=O)O` [Example 5.3]: 30.6 nM. The result for `CCc1nn(Cc2ccc(NC(=O)C3CCCC3)cc2)c(CC)c1CC(=O)O` [Example 2.32] reads 2.6 nM; that for `Cc1nn(Cc2ccc(NC(=O)OCc3ccccc3)cc2)c(C)c1CCC(=O)O` [Example 3.2], 786 nM; that for `CCc1nn(Cc2ccc(OCc3cccc(Cl)c3)cc2)c(CC)c1CC(=O)O` [Example 13.9], 39.1 nM. `Cc1nn(Cc2ccc(OCc3ccc(Cl)c(Cl)c3)cc2)c(C)c1CC(=O)O` [Example 13.1]: the Ki is 30 nM. The result for `CCc1nn(Cc2ccc(NC(=O)c3cccc(C)c3CC(C)C)cc2)c(CC)c1CC(=O)O` [Example 2.28] reads 17.1 nM; that for `CCc1nn(Cc2ccc(S(=O)(=O)Nc3ccc(C)c(Cl)c3)cc2)c(CC)c1CC(=O)O` [Example 10.3], 16.1 nM.

In turn, `CCc1nn(Cc2ccc(NC(=O)c3ccccc3C3CCCCC3)cc2)c(CC)c1CC(=O)O` [Example 2.29] registered a Ki of 6.3 nM. Compared with the last compound, the Ki is about 2.6-fold lower. `Cc1cc(C(F)(F)F)ccc1C(=O)Nc1ccc(Cn2nc(C)c(CCC(=O)O)c2C)cc1` [Example 8.7] yielded a Ki of 669 nM. The result for `CCc1nn(Cc2ccc(NC(=O)c3ccccc3C3CC3)cc2)c(CC)c1CC(=O)O` [Example 2.35] reads 11.6 nM. The result for `Cc1nn(Cc2ccc(CSc3ccc(Cl)c(Cl)c3)cc2)c(C)c1CC(=O)O` [Example 16.4] reads 875 nM; that for `CCc1c(CC(=O)O)c(C2CC2)nn1Cc1ccc(NC(=O)c2ccc(C(F)(F)F)cc2)cc1` [Example 2.47], 0.1 nM. In turn, `Cc1nn(Cc2ccc(NC(=O)c3ccc4ccccc4c3)cc2Cl)c(C)c1CC(=O)O` [Example 7.13] had an inhibition constant Ki of 1.3 nM. Next, `Cc1nn(Cc2ccc(NC(=O)OCc3ccccc3Cl)cc2)c(C)c1CC(=O)O` [Example 3.5]: 16.8 nM; `Cc1nn(Cc2ccc(NC(=O)c3ccc4ccccc4n3)cc2)c(C)c1CC(=O)O` [Example 1.9]: 28.3 nM. Next, `Cc1nn(Cc2ccc(NS(=O)(=O)c3ccc(C(F)(F)F)cc3)cc2)c(C)c1CC(=O)O` [Example 5.4]: 230 nM; `Cc1cc(C(F)(F)F)ccc1C(=O)Nc1ccc(Cn2nc(C)c(CC(=O)O)c2C)c(F)c1` [Example 7.16]: 3.5 nM. Next, `CCc1c(CC(=O)O)c(C2CC2)nn1Cc1ccc(NC(=O)c2ccc(Cl)cc2C)cc1` [Example 2.46]: 0.6 nM. `Cc1nn(Cc2ccc(NS(=O)(=O)c3ccccc3)cc2)c(C)c1CC(=O)O` [Example 5.1] displayed an inhibition constant Ki of 43.9 nM. Next, `CCc1nn(Cc2ccc(C(=O)Nc3cccc(F)c3)cc2)c(CC)c1CC(=O)O` [Example 9.10]: 39.1 nM; `Cc1cc(Cl)ccc1C(=O)Nc1ccc(Cn2nc(C)c(CC(=O)O)c2C)c(F)c1` [Example 7.19]: 5.8 nM.
